From patent publication US8563542B2 (Cyclacel Limited, priority 2007, dated 2013)
pIC50: −log10 of the molar value.

Biological target: PLK1 (Homo sapiens, UniProt P53350)
Test: PLK1 protein kinase assay (CDC25C phosphorylation, [γ-32P]-ATP)
Format: biochemical
Details: Table 2, PLK1 IC50; class symbols; read-out: PLK1 IC50

Sequence of PLK1 (P53350 whole entry): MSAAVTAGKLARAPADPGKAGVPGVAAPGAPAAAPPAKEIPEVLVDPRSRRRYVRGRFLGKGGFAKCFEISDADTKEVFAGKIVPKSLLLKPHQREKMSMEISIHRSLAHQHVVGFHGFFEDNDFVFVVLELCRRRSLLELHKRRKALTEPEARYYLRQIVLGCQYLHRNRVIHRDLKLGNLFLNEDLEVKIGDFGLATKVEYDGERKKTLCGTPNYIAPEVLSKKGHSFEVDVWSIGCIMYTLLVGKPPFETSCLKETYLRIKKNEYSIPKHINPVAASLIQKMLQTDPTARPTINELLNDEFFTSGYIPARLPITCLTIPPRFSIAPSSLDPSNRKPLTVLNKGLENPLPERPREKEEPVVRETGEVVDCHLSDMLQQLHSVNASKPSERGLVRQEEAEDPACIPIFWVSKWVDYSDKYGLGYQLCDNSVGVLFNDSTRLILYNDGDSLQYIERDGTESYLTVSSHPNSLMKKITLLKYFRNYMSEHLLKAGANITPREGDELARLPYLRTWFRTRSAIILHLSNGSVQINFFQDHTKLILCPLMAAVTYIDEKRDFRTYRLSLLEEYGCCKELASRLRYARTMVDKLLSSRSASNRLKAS

SMILES	pIC50
COc1cc(C(=O)NC2CCCC2)ccc1Nc1ncc2c(n1)N(CC1CC1)CCC(=O)N2C [compound 248, N-Cyclopentyl-4-(9-cyclopropylmethyl-5-methyl-6-oxo-6,7,8,9-tetrahydro-5H-pyrimido[4,5-b][1,4]diazepin-2-ylamino)-3-methoxy-benzamide]	> 6.00
COc1cc(C(=O)NCc2cccn2C)ccc1Nc1ncc2c(n1)N(CC1CC1)CCC(=O)N2C [compound 249, 4-(9-Cyclopropylmethyl-5-methyl-6-oxo-6,7,8,9-tetrahydro-5H-pyrimido[4,5-b][1,4]diazepin-2-ylamino)-3-methoxy-N-(1-methyl-1H-pyrrol-2-ylmethyl)-benzamide]	> 6.00
COc1ccc(C(=O)NCCOCCO)cc1Nc1ncc2c(n1)N(C1CCCC1)CCC(=O)N2C [compound 263, 3-(9-Cyclopentyl-5-methyl-6-oxo-6,7,8,9-tetrahydro-5H-pyrimido[4,5-b][1,4]diazepin-2-ylamino)-N-[2-(2-hydroxy-ethoxy)-ethyl]-4-methoxy-benzamide]	> 6.00
CONC(=O)c1ccc(OC)c(Nc2ncc3c(n2)N(C2CCCC2)CCC(=O)N3C)c1 [compound 264, 3-(9-Cyclopentyl-5-methyl-6-oxo-6,7,8,9-tetrahydro-5H-pyrimido[4,5-b][1,4]diazepin-2-ylamino)-4,N-dimethoxy-benzamide]	> 6.00
COc1ccc(C(=O)NC2CCN(Cc3ccccc3)C2)cc1Nc1ncc2c(n1)N(C1CCCC1)CCC(=O)N2C (stereo not drawn) [compound 265, N-(1-Benzyl-pyrrolidin-3-yl)-3-(9-cyclopentyl-5-methyl-6-oxo-6,7,8,9-tetrahydro-5H-pyrimido[4,5-b][1,4]diazepin-2-ylamino)-4-methoxy-benzamide]	> 6.00
COc1ccc(C(=O)NCCN2CCOCC2)cc1Nc1ncc2c(n1)N(C1CCCC1)CCC(=O)N2C [compound 266, 3-(9-Cyclopentyl-5-methyl-6-oxo-6,7,8,9-tetrahydro-5H-pyrimido[4,5-b][1,4]diazepin-2-ylamino)-4-methoxy-N-(2-morpholin-4-yl-ethyl)-benzamide]	> 6.00
COc1ccc(C(=O)NCCc2c[nH]cn2)cc1Nc1ncc2c(n1)N(C1CCCC1)CCC(=O)N2C [compound 267, 3-(9-Cyclopentyl-5-methyl-6-oxo-6,7,8,9-tetrahydro-5H-pyrimido[4,5-b][1,4]diazepin-2-ylamino)-N-[2-(1H-imidazol-4-yl)-ethyl]-4-methoxy-benzamide]	> 6.00
COc1ccc(C(=O)NCc2cccn2C)cc1Nc1ncc2c(n1)N(C1CCCC1)CCC(=O)N2C [compound 268, 3-(9-Cyclopentyl-5-methyl-6-oxo-6,7,8,9-tetrahydro-5H-pyrimido[4,5-b][1,4]diazepin-2-ylamino)-4-methoxy-N-(1-methyl-1H-pyrrol-2-ylmethyl)-benzamide]	> 6.00
COc1ccc(C(=O)NCC2CCCCN2C)cc1Nc1ncc2c(n1)N(C1CCCC1)CCC(=O)N2C (stereo not drawn) [compound 269, 3-(9-Cyclopentyl-5-methyl-6-oxo-6,7,8,9-tetrahydro-5H-pyrimido[4,5-b][1,4]diazepin-2-ylamino)-4-methoxy-N-(1-methyl-piperidin-2-ylmethyl)-benzamide]	> 6.00
COCCNC(=O)c1ccc(OC)c(Nc2ncc3c(n2)N(C2CCCC2)CCC(=O)N3C)c1 [compound 270, 3-(9-Cyclopentyl-5-methyl-6-oxo-6,7,8,9-tetrahydro-5H-pyrimido[4,5-b][1,4]diazepin-2-ylamino)-4-methoxy-N-(2-methoxy-ethyl)-benzamide]	> 6.00
COc1ccc(C(=O)NC2CCN(Cc3ccccc3)CC2)cc1Nc1ncc2c(n1)N(C1CCCC1)CCC(=O)N2C [compound 271, N-(1-Benzyl-piperidin-4-yl)-3-(9-cyclopentyl-5-methyl-6-oxo-6,7,8,9-tetrahydro-5H-pyrimido[4,5-b][1,4]diazepin-2-ylamino)-4-methoxy-benzamide]	> 6.00
COc1ccc(C(=O)NCCCCO)cc1Nc1ncc2c(n1)N(C1CCCC1)CCC(=O)N2C [compound 272, 3-(9-Cyclopentyl-5-methyl-6-oxo-6,7,8,9-tetrahydro-5H-pyrimido[4,5-b][1,4]diazepin-2-ylamino)-N-(4-hydroxy-butyl)-4-methoxy-benzamide]	> 6.00
COc1ccc(C(=O)NCc2ccco2)cc1Nc1ncc2c(n1)N(C1CCCC1)CCC(=O)N2C [compound 273, 3-(9-Cyclopentyl-5-methyl-6-oxo-6,7,8,9-tetrahydro-5H-pyrimido[4,5-b][1,4]diazepin-2-ylamino)-N-furan-2-ylmethyl-4-methoxy-benzamide]	> 6.00
COc1cc(C(=O)O)ccc1Nc1ncc2c(n1)N(CC1CC1)CC(C)(C)C(=O)N2C [compound 275, 4-(9-Cyclopropylmethyl-5,7,7-trimethyl-6-oxo-6,7,8,9-tetrahydro-5H-pyrimido[4,5-b][1,4]diazepin-2-ylamino)-3-methoxy-benzoic acid]	> 6.00
COc1cc(C(=O)NC2CCN(C)CC2)ccc1Nc1ncc2c(n1)N(CC1CC1)CC(C)(C)C(=O)N2C [compound 276, 4-(9-Cyclopropylmethyl-5,7,7-trimethyl-6-oxo-6,7,8,9-tetrahydro-5H-pyrimido[4,5-b][1,4]diazepin-2-ylamino)-3-methoxy-N-(1-methyl-piperidin-4-yl)-benzamide]	> 6.00

Second part, the compound after the results:

pIC50	SMILES
> 6.00	COc1cc(C(=O)NC(C)(C)CN2CCCC2)ccc1Nc1ncc2c(n1)N(C1CCCC1)CC1(CC1)C(=O)N2C [compound 250, 4-(9-Cyclopentyl-5-methyl-6-oxo-6,7,8,9-tetrahydro-5H-pyrimido[4,5-b][1,4]diazepin-3,1′-cyclopropane-2-ylamino)-N-(1,1-dimethyl-2-pyrrolidin-1-yl-ethyl)-3-methoxy-benzamide]
> 6.00	COc1cc(C(=O)NC(C)(C)CN2CCCCC2)ccc1Nc1ncc2c(n1)N(C1CCCC1)CC1(CC1)C(=O)N2C [compound 251, 4-(9-Cyclopentyl-5-methyl-6-oxo-6,7,8,9-tetrahydro-5H-pyrimido[4,5-b][1,4]diazepin-3,1′-cyclopropane-2-ylamino)-N-(1,1-dimethyl-2-piperidin-1-yl-ethyl)-3-methoxy-benzamide]
> 6.00	COc1cc(C(=O)NC2CCN(Cc3ccccc3)CC2)ccc1Nc1ncc2c(n1)N(C1CCCC1)CC1(CC1)C(=O)N2C [compound 252, 4-(9-Cyclopentyl-5-methyl-6-oxo-6,7,8,9-tetrahydro-5H-spiro[pyrimido[4,5-b][1,4]diazepin-3,1′-cyclopropane]-2-ylamino)-3-methoxy-N-(1-benzylpiperidin-4-yl)-benzamide]
> 7.00	COc1cc(C(=O)NCC2CCN(C)CC2)ccc1Nc1ncc2c(n1)N(C1CCCC1)CC1(CC1)C(=O)N2C [compound 253, 4-(9-Cyclopentyl-5-methyl-6-oxo-6,7,8,9-tetrahydro-5H-pyrimido[4,5-b][1,4]diazepin-3,1′-cyclopropane-2-ylamino)-3-methoxy-N-(1-methyl-piperidin-4-ylmethyl)-benzamide]
> 7.00	COc1cc(C(=O)NC2CC(C)(C)N(C)C(C)(C)C2)ccc1Nc1ncc2c(n1)N(C1CCCC1)CC1(CC1)C(=O)N2C [compound 255, 4-(9-Cyclopentyl-5-methyl-6-oxo-6,7,8,9-tetrahydro-5H-spiro[pyrimido[4,5-b][1,4]diazepin-3,1′-cyclopropane]-2-ylamino)-3-methoxy-N-(1,2,2,6,6-pentamethyl-piperidin-4-yl)-benzamide]
> 7.00	COc1cc(C(=O)NCC(C)(C)CN(C)C)ccc1Nc1ncc2c(n1)N(C1CCCC1)CC1(CC1)C(=O)N2C [compound 256, 4-(9-Cyclopentyl-5-methyl-6-oxo-6,7,8,9-tetrahydro-5H-pyrimido[4,5-b][1,4]diazepin-3,1′-cyclopropane-2-ylamino)-N-(3-dimethylamino-2,2-dimethyl-propyl)-3-methoxy-benzamide]
> 7.00	COc1cc(C(=O)NCc2ccncc2)ccc1Nc1ncc2c(n1)N(C1CCCC1)CC1(CC1)C(=O)N2C [compound 258, 4(9-Cyclopentyl-5-methyl-6-oxo-6,7,8,9-tetrahydro-5H-pyrimido[4,5-b][1,4]diazepin-3,1′-cyclopropane-2-ylamino)-3-methoxy-N-pyridin-4-ylmethyl-benzamide]
> 7.00	COc1cc(C(=O)NCc2cccn2C)ccc1Nc1ncc2c(n1)N(C1CCCC1)CC1(CC1)C(=O)N2C [compound 259, 4-(9-Cyclopentyl-5-methyl-6-oxo-6,7,8,9-tetrahydro-5H-pyrimido[4,5-b][1,4]diazepin-3,1′-cyclopropane-2-ylamino)-3-methoxy-N-(1-methyl-1 H-pyrrol-2-ylmethyl)-benzamide]
> 7.00	COc1cc(C(=O)NC2CCCC2)ccc1Nc1ncc2c(n1)N(C1CCCC1)CC1(CC1)C(=O)N2C [compound 260, N-Cyclopentyl-4-(9-Cyclopentyl-5-methyl-6-oxo-6,7,8,9-tetrahydro-5H-spiro[pyrimido[4,5-b][1,4]diazepin-3,1′-cyclopropane]-2-ylamino)-3-methoxy-benzamide]
> 7.00	CCc1cc(C(=O)NC2CCN(C)CC2)ccc1Nc1ncc2c(n1)N(C1CCCC1)CC1(CC1)C(=O)N2C [compound 261, 4-(9-Cyclopentyl-5-methyl-6-oxo-6,7,8,9-tetrahydro-5H-spiro(pyrimido[4,5-b][1,4]diazepin-3,1′-cyclopropane]-2-ylamino)-3-ethyl-N-(1-methyl-piperidin-4-yl)-benzamide]
> 7.00	COc1cc(C(=O)NC2CCN(C)CC2)ccc1Nc1ncc2c(n1)N(CC1CC1)CC1(CC1)C(=O)N2C [compound 262, 4-(9-Cyclopropylmethyl-5-methyl-6-oxo-6,7,8,9-tetrahydro-5H-pyrimido[4,5-b][1,4]diazepin-3,1′-cyclopropane-2-ylamino)-3-methoxy-N-(1-methyl-piperidin-4-yl)-benzamide]
> 6.00	CN1CCC(NC(=O)c2ccc(Nc3ncc4c(n3)N(C3CCCC3)CC3(CC3)C(=O)N4C)c(O)c2)CC1 [compound 274, 4-(9-Cyclopentyl-5-methyl-6-oxo-6,7,8,9-tetrahydro-5H-spiro[pyrimido[4,5-b][1,4]diazepin-3,1′-cyclopropane]-2-ylamino)-3-hydroxy-N-(1-methyl-piperidin-4-yl)-benzamide]
